Assay results: patent publication US12194049B2, “Composition for treating carbapenem antibiotic-resistant Acinetobacter baumannii infection” (priority 2019, dated 2025)

Key:
[1] = system: clinically isolated Acinetobacter baumannii; conditions: found in 2017; cited from earlier work
[2] = system: CR-Ab pneumonia model mice; assay: Protective effect in CR-Ab pneumonia model mice (7-day survival); format: in vivo, Male C57BL/6 mice; conditions: intraperitoneal, once a day, after 7 days
[3] = system: carbapenem antibiotic-resistant Acinetobacter baumannii CR-Ab (157 clinically isolated strains); assay: microbe, parasite or virus in culture; conditions: read-out: Cumulative microbial inhibition rates (%) against CR-Ab
Text: Strains: 157 clinically isolated strains of carbapenem antibiotic-resistant Acinetobacter baumannii were selected and named as CR-Ab.
Drugs: Sulbactam and ceftazidime were taken and prepared into compositions of different ratios. The method was fixing the amount of sulbactam and gradually reducing the amount of ceftazidime to obtain compositions of sulbactam and ceftazidime at weight ratios of 1:1, 1:0.9, 1:0.8, 1:0.6, 1:0.4, 1:0.2 and 1:0.1, respectively. A sulbactam-only preparation was additionally used as a control.
The cumulative microbial inhibition rate was used to evaluate the microbial inhibition effects of the drugs, respectively. The cumulative microbial inhibition rate was defined as the microbial inhibition rate of a drug at a certain concentration plus all the microbial inhibition rates below that concentration.

Compound | resistance rate [1] | Survival of CR-Ab pneumonia model mice ([2]; High dose (30 mg/kg)) | Survival of CR-Ab pneumonia model mice ([2]; Low dose (10 mg/kg)) | inhibition at 0.125 µg/mL [3] | inhibition at 0.25 µg/mL [3] | inhibition at 0.5 µg/mL [3] | inhibition at 1 µg/mL [3] | inhibition at 2 µg/mL [3] | inhibition at 4 µg/mL [3] | inhibition at 8 µg/mL [3] | inhibition at 16 µg/mL [3] | inhibition at 32 µg/mL [3] | inhibition at 64 µg/mL [3] | inhibition at 128 µg/mL [3] | inhibition at 256 µg/mL [3] | inhibition at 512 µg/mL [3]
C[C@@H](O)[C@H]1C(=O)N2C(C(=O)O)=C(S[C@@H]3CN[C@H](C(=O)N(C)C)C3)[C@H](C)[C@H]12 [Meropenem, meropenem] | up to 69.3% | 3/15 | 2/15 |  |  |  |  |  |  |  |  |  |  |  |  | 
CC1(C)[C@H](C(=O)O)N2C(=O)C[C@H]2S1(=O)=O [Single sulbactam, (2S,5R)-3,3-dimethyl-7-oxo-4-thia-1-azabicyclo[3.2.0]heptane-2-carboxylate-4,4-dioxide] |  |  |  | 0% | 0% | 0% | 7% | 17% | 32% | 48% | 64% | 84% | 94% | 100% | 100% | 100%
CC(C)(O/N=C(\C(=O)N[C@@H]1C(=O)N2C(C(=O)[O-])=C(C[n+]3ccccc3)CS[C@H]12)c1csc(N)n1)C(=O)O [ceftazidime, (6R,7R)-7-[[(2Z)-2-(2-Aminothiazol-4-yl)-2-[(1-carboxy-1-methylethoxy)imino]acetyl]amino]-8-oxo-3-[(1-pyridinio)methyl]-5-thia-1-azabicyclo[4.2.0]oct-2-ene-2-carboxylate] | up to 72% |  |  |  |  |  |  |  |  |  |  |  |  |  |  | 
